Measurements: patent US20150353495A1 (PORTOLA PHARMACEUTICALS, INC., priority 2010, published 2015)

Assays:
[1] = tested on: JAK1/3 signaling to STAT6 in Ramos B cells; assay: IL4 stimulation of JAK1/3 signaling to STAT6 in Ramos B cells (pSTAT6 Y641, FACS); assay type: cell-based; details: Homo sapiens; for inhibition at 0.2 µM: 0.2 uM compound, read-out: IL-4/STAT6 in Ramos Percent Inhibition at 0.2 uM; for inhibition at 1 µM: 1.0 uM compound, read-out: IL-4/STAT6 in Ramos Percent Inhibition at 1.0 uM
Outline: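 Phospho-STAT6 Y641 was measured by FACS using a PE-labelled antibody after fixation (2% paraformaldehyde) and methanol permeabilization. Before this, Ramos cells were exposed to compound for 1 h, then to 15 ng IL4 for 15 min.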

[2] = molecular target: T1, JAK2 (Homo sapiens, UniProt O60674); assay: Z'-LYTE kinase assay JAK2; assay type: biochemical
T1 construct: 5 μl of catalytic domain recombinant Kinase enzyme+Tyr peptide substrate (Invitrogen, CA); purchased Invitrogen
Outline: (§1)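 Z′-LYTE FRET, Tyr6 peptide, recombinant catalytic domain + ATP, 1 h RT, 1% DMSO final, duplicates; protease development 1 h RT; fluorescence read.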

[3] = molecular target: T2, TYK2 (Homo sapiens, UniProt P29597); assay: Z'-LYTE kinase assay TYK2; assay type: biochemical
T2 construct: 5 μl of catalytic domain recombinant Kinase enzyme+Tyr peptide substrate (Invitrogen, CA); purchased Invitrogen
T2 sequence (P29597 897-1176 limits assumed): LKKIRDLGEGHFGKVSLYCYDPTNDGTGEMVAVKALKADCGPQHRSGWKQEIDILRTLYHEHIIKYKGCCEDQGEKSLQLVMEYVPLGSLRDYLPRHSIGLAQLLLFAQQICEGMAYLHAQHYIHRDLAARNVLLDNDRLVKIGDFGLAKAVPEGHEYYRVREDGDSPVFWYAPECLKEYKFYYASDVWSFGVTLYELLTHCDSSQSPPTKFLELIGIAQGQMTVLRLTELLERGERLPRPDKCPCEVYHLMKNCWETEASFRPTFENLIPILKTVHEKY
Outline: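 IC50 derived by 4-parameter logistic fit of percent substrate phosphorylation relative to uninhibited wells. Tyr6 peptide phosphorylated by recombinant TYK2 catalytic domain for 1 h at room temperature (1% DMSO), cleaved by development protease 1 h, FRET emission ratio 445/520 nm.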

[4] = tested on: JAK1/3 signaling to STAT5 in primary T cells; assay: IL2 stimulation of JAK1/3 signaling to STAT5 in primary T cells (pSTAT5 Y694, FACS); assay type: cell-based; details: T-cell; for inhibition at 0.2 µM: 0.2 uM compound, read-out: IL-2/STAT5 Percent Inhibition at 0.2 uM; for inhibition at 1 µM: 1.0 μM compound, read-out: IL-2/STAT5 Percent Inhibition at 1.0 μM
Protocol: IL2 Stimulation of JAK1/3 Signaling to STAT5 in Primary T Cells:
The effect of JAK inhibitors on cytokine signaling pathways utilizing JAK3 was determined using an IL2 stimulation assay. IL2 engages a receptor complex that contains the IL2 receptor alpha and beta subunits, and the common gamma chain, to initiate activation of JAK1 and JAK3 leading to phosphorylation of STAT5 at tyrosine position 694. Lymphocytes are isolated from heparinized whole blood over a ficoll gradient, then resuspended in tissue culture media containing 10% fetal calf serum at 10×10̂6 cells/ml. 100 μl aliquots are pre-treated for 1 hour with various concentrations of compound, and then stimulated for 12 minutes with 100 U/ml IL2. The signaling reaction is terminated by fixing in 2% paraformaldehyde for 10 minutes at room temperature. Fixed cells are then washed and permeablized by suspension in 50% methanol (in PBS) at −80° C. Following overnight incubation at 4° C., cells are washed and resuspended in PBS containing 0.5% bovine serum albumin containing CD3-APC and pSTAT5 Y694-PE conjugated antibodies. After 1 hour incubation, cells are washed and the extent of STAT5 phosphorlyation in T cells is measured by FACS analysis.

[5] = molecular target: T3, JAK1 (Homo sapiens, UniProt P23458); assay: Z'-LYTE kinase assay JAK1; assay type: biochemical
T3 construct: 5 μl of catalytic domain recombinant Kinase enzyme+Tyr peptide substrate (Invitrogen, CA); purchased Invitrogen
Outline: as §1

[6] = molecular target: T4, JAK3 (Homo sapiens, UniProt P52333); assay: Z'-LYTE kinase assay JAK3; assay type: biochemical
T4 construct: 5 μl of catalytic domain recombinant Kinase enzyme+Tyr peptide substrate (Invitrogen, CA); purchased Invitrogen
Outline: as §1

T1 sequence (O60674 849-1124 limits assumed): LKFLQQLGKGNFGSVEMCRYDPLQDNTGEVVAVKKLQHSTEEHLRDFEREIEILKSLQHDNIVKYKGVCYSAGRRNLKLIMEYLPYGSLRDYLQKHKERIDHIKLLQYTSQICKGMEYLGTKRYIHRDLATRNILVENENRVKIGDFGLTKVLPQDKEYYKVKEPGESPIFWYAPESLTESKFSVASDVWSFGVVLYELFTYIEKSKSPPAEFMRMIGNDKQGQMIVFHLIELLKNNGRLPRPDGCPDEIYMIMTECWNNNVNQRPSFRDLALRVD
T3 sequence (P23458 875-1153 limits assumed): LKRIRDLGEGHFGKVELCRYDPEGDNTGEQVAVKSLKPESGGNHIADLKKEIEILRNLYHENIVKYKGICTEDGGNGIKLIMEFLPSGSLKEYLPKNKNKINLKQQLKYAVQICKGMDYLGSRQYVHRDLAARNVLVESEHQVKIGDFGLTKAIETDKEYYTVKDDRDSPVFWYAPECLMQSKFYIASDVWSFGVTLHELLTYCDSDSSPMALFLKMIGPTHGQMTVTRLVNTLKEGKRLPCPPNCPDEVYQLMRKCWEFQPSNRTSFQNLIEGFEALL
T4 sequence (P52333 822-1111 limits assumed): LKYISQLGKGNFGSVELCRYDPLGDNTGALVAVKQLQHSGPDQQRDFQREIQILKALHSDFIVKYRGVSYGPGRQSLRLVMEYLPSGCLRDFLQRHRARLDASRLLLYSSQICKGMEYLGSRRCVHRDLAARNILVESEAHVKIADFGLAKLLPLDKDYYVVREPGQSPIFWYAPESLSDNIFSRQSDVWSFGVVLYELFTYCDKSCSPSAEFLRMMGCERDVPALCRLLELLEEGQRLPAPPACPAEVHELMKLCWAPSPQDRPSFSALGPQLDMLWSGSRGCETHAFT

Row | SMILES | inhibition at 0.2 µM [1] [%] | inhibition at 1 µM [1] [%] | IC50 [2] [nM] | IC50 [3] [nM] | inhibition at 0.2 µM [4] [%] | inhibition at 1 µM [4] [%] | IC50 [5] [nM] | IC50 [6] [nM]
1 | CC(=O)N1CCN(c2ccc(Nc3cc(N[C@H](C)c4ccccc4)c(C(N)=O)cn3)cc2)CC1 [Example 7, (R)-6-(4-(4-acetylpiperazin-1-yl)phenylamino)-4-(1-phenylethylamino)nicotinamide] | 10 | 40 | 100 to 1000 | > 1000 | 29 | 74 | 100 to 1000 | 1 to 10
2 | NC(=O)c1cnc(Nc2ccc(C(=O)N3CCCC3)cc2)cc1NCc1ccccc1 [Example 39, 4-(benzylamino)-6-(4-(pyrrolidine-1-carbonyl)phenylamino)nicotinamide] | 47 | 52 | 100 to 1000 | 100 to 1000 | 37 | 65 | 100 to 1000 | 1 to 10
3 | NC(=O)c1cnc(Nc2cccc(OCCN3CCCC3)c2)cc1N[C@H](CO)c1ccccc1 [Example 59, (S)-4-(2-hydroxy-1-phenylethylamino)-6-(3-(2-(pyrrolidin-1-yl)ethoxy)phenylamino)nicotinamide] | 11 | 27 | 100 to 1000 | > 1000 | 12 | 50 | > 1000 | 1 to 10
4 | Cc1cc(Nc2cc(NCc3cccc(F)c3)c(C(N)=O)cn2)ccc1N1CCCC1=O [Example 61, 4-(3-fluorobenzylamino)-6-(3-methyl-4-(2-oxopyrrolidin-1-yl)phenylamino)nicotinamide] | 40 | 60 | 10 to 100 | 100 to 1000 | 39 | 67 | 100 to 1000 | 1 to 10
5 | NC(=O)c1cnc(Nc2ccc(N3CCOCC3)cc2)cc1NCc1cccc(F)c1 [Example 67, 4-(3-fluorobenzylamino)-6-(4-morpholinophenylamino)nicotinamide] | 48 | 69 | 10 to 100 | 100 to 1000 | 61 | 89 | 100 to 1000 | 1 to 10
6 | CCC(=O)N1CCC(c2ccc(Nc3cc(NCc4ccccc4F)c(C(N)=O)cn3)cc2)CC1 [Example 79] | 20 | 43 | 100 to 1000 | 100 to 1000 | 53 | 73 | 100 to 1000 | 10 to 100
7 | NC(=O)c1cnc(Nc2ccc(C(=O)N3CCC3)cc2)cc1NCc1c(F)cccc1F [Example 105, 6-(4-(azetidine-1-carbonyl)phenylamino)-4-(2,6-difluorobenzylamino)nicotinamide] | 53 | 88 | 10 to 100 | 10 to 100 | 72 | 99 | 10 to 100 | 1 to 10
8 | CN1CCC(c2ccc(Nc3cc(NCc4ccccc4F)c(C(N)=O)cn3)cc2)CC1 [Example 107, 4-(2-fluorobenzylamino)-6-(4-(1-methylpiperidin-4-yl)phenylamino)nicotinamide] | 43 | 73 | 100 to 1000 | 100 to 1000 | 58 | 82 | 100 to 1000 | 1 to 10
9 | NC(=O)c1cnc(Nc2ccc(C3CCN(C(=O)C4CCOCC4)CC3)cc2)cc1NCc1ccccc1F [Example 119, 4-(2-fluorobenzylamino)-6-(4-(1-(tetrahydro-2H-pyran-4-carbonyl)piperidin-4-yl)phenylamino)nicotinamide] | 17 | 47 | 10 to 100 | 100 to 1000 | 54 | 83 | 100 to 1000 | 1 to 10
10 | NC(=O)c1cnc(Nc2cccc(C(=O)N3CCCCC3)c2)cc1NCc1ccccc1 [Example 249, 4-(benzylamino)-6-(3-(piperidine-1-carbonyl)phenylamino)nicotinamide] | 23 | 32 | 100 to 1000 | > 1000 | 12 | 29 | 100 to 1000 | 10 to 100
11 | NC(=O)c1cnc(Nc2ccc(N3CCOCC3)cc2)cc1NCc1ccccc1 [Example 250, 4-(benzylamino)-6-(4-morpholinophenylamino)nicotinamide] | 11 | 26 | 100 to 1000 | > 1000 | 18 | 50 | > 1000 | 1 to 10
12 | CC(=O)N1CCN(c2ccc(Nc3cc(NCc4cccc(F)c4F)c(C(N)=O)cn3)cc2)CC1 [Example 256, 6-(4-(4-acetylpiperazin-1-yl)phenylamino)-4-(2,3-difluorobenzylamino)nicotinamide] | 37 | 64 | 10 to 100 | 100 to 1000 | 69 | 100 | 100 to 1000 | 1 to 10
13 | NC(=O)c1cnc(Nc2ccc(OCCN3CCCC3)cc2)cc1NCc1ccccc1 [Example 428, 4-(benzylamino)-6-(4-(2-(pyrrolidin-1-yl)ethoxy)phenylamino)nicotinamide] | 33 | 46 | 100 to 1000 | > 1000 | 56 | 84 | > 1000 | 1 to 10
14 | NC(=O)c1cnc(Nc2ccc(OCCN3CCOCC3)cc2)cc1NCc1ccccc1 [Example 429, 4-(benzylamino)-6-(4-(2-morpholinoethoxyl)phenylamino)nicotinamide] | 19 | 33 | 100 to 1000 | > 1000 | 60 | 77 | 100 to 1000 | 1 to 10
15 | Cc1cc(Nc2cc(NCc3cccc4cc[nH]c34)c(C(N)=O)cn2)ccc1C(=O)N1CCCC1 [Example 464, 4-((1H-indol-7-yl)methylamino)-6-(3-methyl-4-(pyrrolidine-1-carbonyl)phenylamino)nicotinamide] |  |  | 10 to 100 | > 1000 | 22 | 55 | > 1000 | 1 to 10
